Reference: US5034402A, “Methods and pharmaceutical compositions using pyrrolidine derivatives” (Hoffmann-La Roche Inc., priority 1981, dated 1991)

Assays:
[1] = acute toxicity, single oral administration to mice; details: mouse, in vivo
Source text: Moreover, the Table contains data concerning the acute toxicity (LD50 in mg/kg in the case of single oral administration to mice).

short-time memory = assay: passive avoidance response in the Skinner box; reversal of scopolamine-induced blocking of short-time memory; format: in vivo, rats
Source text: The test apparatus is a "Skinner box" with an electrifiable grid floor (30×40 cm) and a grey plastic platform (15×15×0.8 cm) in the front right corner. Untrained male rats (100-120 g) are placed individually on the platform. As soon as they climb down on to the grid floor they receive an electric foot-shock (0.8 mA). The normal reaction of untrained rats is thereupon to jump back on to the platform. Since, however, the rats still attempt to climb down again, the foot-shock procedure must be repeated three to five times for each animal. After these three to five repetitions per animal, the rats have learned a so-called "passive avoidance response", that is, they no longer attempt to descend to the grid floor, since they know that they are punished when they do so.
Immediately thereafter three groups each comprising 30 animals are set up. The first group receives an injection (i.p.) of 0.3 mg/kg of scopolamine as well as distilled water (2 ml/kg, p.o.). The second group receives an injection (i.p.) of 0.3 mg/kg of scopolamine and an oral dosage of the test substance. The third group receives only distilled water (p.o).
Two (2) hours later each rat is placed once on the platform in the "Skinner box". […] The statistical significance of the difference between the results obtained in the first and in the second groups is determined by means of the Chi-Square Test. […]

SMILES | LD50 [1] [mg/kg] | Significant active dosage (short-time memory; oral dosage significantly active against scopolamine (0.3 mg/kg i.p.), assessed 2 hours later, Chi-Square Test, each listed dosage was active) [mg/kg p.o.] | animals with retrograde effect on the short-time memory (short-time memory; scopolamine 0.3 mg/kg i.p. and distilled water p.o., during 3-4 hours)
C[C@@H]1CCC[C@H](C)N1CCNC(=O)CN1CCC(O)C1=O (mixture of isomers) [Compound A, (R/S)-cis-N-[2-(2,6-dimethyl-1-piperidinyl)ethyl]-2-(3-hydroxy-2-oxo-1-pyrrolidinyl)acetamide] | > 5000 | – | –
NC(=O)CN1CCC(O)C1=O (racemic) [Compound D, (R/S)-2-(3-hydroxy-2-oxo-1-pyrrolidinyl)acetamide] | > 5000 | – | –
CC(C)N(CCNC(=O)CN1CCC(O)C1=O)C(C)C (racemic) [Compound E, (R/S)-N-[2-(diisopropylamino)ethyl]-2-(3-hydroxy-2-oxo-1-pyrrolidinyl)-acetamide] | > 5000 | 3 | –
NC(=O)CN1CC[C@H](O)C1=O [Compound B, (S)-(-)-2-(3-hydroxy-2-oxo-1-pyrrolidinyl)acetamide] | > 5000 | – | –
NC(=O)CN1CC[C@@H](O)C1=O [Compound C, (R)-(+)-2-(3-hydroxy-2-oxo-1-pyrrolidinyl)acetamide] | > 5000 | – | –
CN1[C@@H]2C[C@@H](OC(=O)[C@H](CO)c3ccccc3)C[C@H]1[C@@H]1O[C@@H]12 [scopolamine, reference compound] | – | – | 85-92%
